Here are results for nine compounds from patent publication US11077090B2, “Compounds and compositions and uses thereof” (Sunovion Pharmaceuticals Inc., priority 2016, dated 2021).

In the first assay the test system is compound-treated mice. Put plainly: Neuropharmacological assay (SmartCube): behavioral activity signature and minimal effective dose. It is filed as in vivo. The following applies: Mus musculus, ip, MED = dose having 50% or more total activity, read-out: Potency: minimal effective dose (MED), binned. The essentials: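 Video-recorded behavior is compared algorithmically against a reference-compound database, yielding class probabilities (best dose reported). Compounds given i.p. in NMP/PEG/propylene glycol 15 min pre-test at 3 doses; potency as MED, the dose (mpk, range usually 0.3–30) reaching ≥50% total activity.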
For `Cc1ccc2c(c1)[C@H](N)[C@H](C(C)C)OC2` [Example 211], the minimal effective dose lay in the range of 3 to 10 mg/kg.
Same read-out and setting: next, `C[C@H]1OCc2c(F)cccc2[C@@H]1N.Cl` [Example 214]: 3 to 10 mg/kg; `C[C@@H]1OCc2c(F)cccc2[C@@H]1N.Cl` [Example 215]: 3 to 10 mg/kg.
Same read-out and setting: next, `C[C@H]1OCc2cccc(F)c2[C@@H]1N.Cl` [Example 216]: 3 to 10 mg/kg; `C[C@@H]1OCc2cccc(F)c2[C@@H]1N.Cl` [Example 217]: 10 to 30 mg/kg.
Same read-out and setting: next, `CCc1ccc2c(c1)[C@H](N)[C@H](C)OC2.Cl` [Example 219]: 3 to 10 mg/kg; `CCc1ccc2c(c1)[C@H](N)[C@@H](C)OC2.Cl` [Example 220]: 3 to 10 mg/kg.
Turning to `Cc1ccc2c(c1)[C@@H](C)OC[C@H]2N` [Example 221], the minimal effective dose lay within 3 to 10 mg/kg.
On the same count and under the same terms, under `Cc1ccc2c(c1)[C@H](C)OC[C@H]2N` [Example 222] stands 3 to 10 mg/kg.

Still in this assay, the particulars now being: i.p. 15 min before test, most efficacious dose(s).
Take `Cc1ccc2c(c1)[C@H](N)[C@H](C(C)C)OC2` [Example 211]: the “AD: ADHD (probability of activity signature)” value (shortened to “AD: ADHD”) is given as “+ (LOQ ≤ + <5%)”, the “AG: analgesic (probability of activity signature)” value (“AG: analgesic” below) was “+ (LOQ ≤ + <5%)”, the “AX: anxiolytic (probability of activity signature)” value (shortened to “AX: anxiolytic”) is listed as “++ (5% ≤ ++ <25%)” and the “CE: cognitive enhancer (probability of activity signature)” value (from here on “CE: cognitive enhancer”) is listed as “+ (LOQ ≤ + <5%)”. For the same compound, the “DP: anti-depressant (probability of activity signature)” value (“DP: anti-depressant” for short) is “++ (5% ≤ ++ <25%)”, the “MS: mood stabilizer (probability of activity signature)” value (from here on “MS: mood stabilizer”) was “+ (LOQ ≤ + <5%)”, the “PS: anti-psychotic (probability of activity signature)” value (from here on “PS: anti-psychotic”) is “++ (5% ≤ ++ <25%)” and the “SD: sedative hypnotic (probability of activity signature)” value (“SD: sedative hypnotic” for short) is “+++ (25% ≤ +++ <50%)”. The “UN: uncharacterized CNS activity (probability of activity signature)” value (“UN: uncharacterized CNS activity” below) is listed as “++++ (50% ≤ ++++)”.
Turning to `C[C@H]1OCc2c(F)cccc2[C@@H]1N.Cl` [Example 214], the “AD: ADHD” value is given as “++ (5% ≤ ++ <25%)”, the “AG: analgesic” value is recorded as “++ (5% ≤ ++ <25%)”, the “AX: anxiolytic” value is “++ (5% ≤ ++ <25%)” and the “CE: cognitive enhancer” value is listed as “++ (5% ≤ ++ <25%)”. Further, the “DP: anti-depressant” value is “++ (5% ≤ ++ <25%)”, the “MS: mood stabilizer” value is “+ (LOQ ≤ + <5%)”, the “PS: anti-psychotic” value is recorded as “++ (5% ≤ ++ <25%)” and the “SD: sedative hypnotic” value is “++ (5% ≤ ++ <25%)”. For the same compound, the “UN: uncharacterized CNS activity” value is recorded as “++++ (50% ≤ ++++)”.
In the case of `C[C@@H]1OCc2c(F)cccc2[C@@H]1N.Cl` [Example 215], the “AD: ADHD” value is on record as “+ (LOQ ≤ + <5%)”, the “AG: analgesic” value is “++ (5% ≤ ++ <25%)”, the “AX: anxiolytic” value is “+++ (25% ≤ +++ <50%)” and the “CE: cognitive enhancer” value was “++ (5% ≤ ++ <25%)”. In addition, the “DP: anti-depressant” value is “++ (5% ≤ ++ <25%)”, the “MS: mood stabilizer” value was “+ (LOQ ≤ + <5%)”, the “PS: anti-psychotic” value is “++ (5% ≤ ++ <25%)” and the “SD: sedative hypnotic” value is recorded as “++ (5% ≤ ++ <25%)”. Besides, the “UN: uncharacterized CNS activity” value was “++++ (50% ≤ ++++)”.
On to `C[C@H]1OCc2cccc(F)c2[C@@H]1N.Cl` [Example 216], for which the “AD: ADHD” value was “+ (LOQ ≤ + <5%)”, the “AG: analgesic” value is recorded as “++ (5% ≤ ++ <25%)”, the “AX: anxiolytic” value is given as “++ (5% ≤ ++ <25%)” and the “CE: cognitive enhancer” value was “+ (LOQ ≤ + <5%)”. Besides, the “DP: anti-depressant” value was “++ (5% ≤ ++ <25%)”, the “MS: mood stabilizer” value is given as “+ (LOQ ≤ + <5%)”, the “PS: anti-psychotic” value is “+ (LOQ ≤ + <5%)” and the “SD: sedative hypnotic” value was “+ (LOQ ≤ + <5%)”. For the same compound, the “UN: uncharacterized CNS activity” value is recorded as “++++ (50% ≤ ++++)”.
As to `C[C@@H]1OCc2cccc(F)c2[C@@H]1N.Cl` [Example 217], the “AD: ADHD” value is “+ (LOQ ≤ + <5%)”, the “AG: analgesic” value is reported as “+ (LOQ ≤ + <5%)”, the “AX: anxiolytic” value is reported as “+++ (25% ≤ +++ <50%)” and the “CE: cognitive enhancer” value is listed as “++ (5% ≤ ++ <25%)”. In addition, the “DP: anti-depressant” value is recorded as “++ (5% ≤ ++ <25%)”, the “MS: mood stabilizer” value is “+ (LOQ ≤ + <5%)”, the “PS: anti-psychotic” value was “++ (5% ≤ ++ <25%)” and the “SD: sedative hypnotic” value is “+ (LOQ ≤ + <5%)”. The “UN: uncharacterized CNS activity” value is given as “++++ (50% ≤ ++++)”.
Turning to `CCc1ccc2c(c1)[C@H](N)[C@H](C)OC2.Cl` [Example 219], the “AD: ADHD” value is on record as “+ (LOQ ≤ + <5%)”, the “AG: analgesic” value was “++ (5% ≤ ++ <25%)”, the “AX: anxiolytic” value was “++ (5% ≤ ++ <25%)” and the “CE: cognitive enhancer” value was “++ (5% ≤ ++ <25%)”. Moreover, the “DP: anti-depressant” value is listed as “+ (LOQ ≤ + <5%)”, the “MS: mood stabilizer” value is “+ (LOQ ≤ + <5%)”, the “PS: anti-psychotic” value was “+ (LOQ ≤ + <5%)” and the “SD: sedative hypnotic” value is “+ (LOQ ≤ + <5%)”. The “UN: uncharacterized CNS activity” value is reported as “++++ (50% ≤ ++++)”.
As to `CCc1ccc2c(c1)[C@H](N)[C@@H](C)OC2.Cl` [Example 220], the “AD: ADHD” value is “+ (LOQ ≤ + <5%)”, the “AG: analgesic” value is recorded as “++ (5% ≤ ++ <25%)”, the “AX: anxiolytic” value is given as “++++ (50% ≤ ++++)” and the “CE: cognitive enhancer” value is listed as “++ (5% ≤ ++ <25%)”. Also, the “DP: anti-depressant” value is on record as “+ (LOQ ≤ + <5%)”, the “MS: mood stabilizer” value is on record as “+ (LOQ ≤ + <5%)”, the “PS: anti-psychotic” value was “+ (LOQ ≤ + <5%)” and the “SD: sedative hypnotic” value is “+ (LOQ ≤ + <5%)”. For the same compound, the “UN: uncharacterized CNS activity” value was “++++ (50% ≤ ++++)”.
In the case of `Cc1ccc2c(c1)[C@@H](C)OC[C@H]2N` [Example 221], the “AD: ADHD” value was “+ (LOQ ≤ + <5%)”, the “AG: analgesic” value is reported as “+ (LOQ ≤ + <5%)”, the “AX: anxiolytic” value is listed as “++ (5% ≤ ++ <25%)” and the “CE: cognitive enhancer” value is “+ (LOQ ≤ + <5%)”. The “DP: anti-depressant” value was “++ (5% ≤ ++ <25%)”, the “MS: mood stabilizer” value was “+ (LOQ ≤ + <5%)”, the “PS: anti-psychotic” value is recorded as “++ (5% ≤ ++ <25%)” and the “SD: sedative hypnotic” value is “+ (LOQ ≤ + <5%)”. Further, the “UN: uncharacterized CNS activity” value was “++++ (50% ≤ ++++)”.
Regarding `Cc1ccc2c(c1)[C@H](C)OC[C@H]2N` [Example 222], the “AD: ADHD” value is “+ (LOQ ≤ + <5%)”, the “AG: analgesic” value was “+ (LOQ ≤ + <5%)”, the “AX: anxiolytic” value is reported as “++ (5% ≤ ++ <25%)” and the “CE: cognitive enhancer” value is “+ (LOQ ≤ + <5%)”. Also, the “DP: anti-depressant” value is on record as “+ (LOQ ≤ + <5%)”, the “MS: mood stabilizer” value is “+ (LOQ ≤ + <5%)”, the “PS: anti-psychotic” value is given as “+ (LOQ ≤ + <5%)” and the “SD: sedative hypnotic” value is “+ (LOQ ≤ + <5%)”. For the same compound, the “UN: uncharacterized CNS activity” value is listed as “++++ (50% ≤ ++++)”.
